For this assay, the target named is α-enolase (Homo sapiens, UniProt P06733). The assay can be described thus: microscale thermophoresis with labeled recombinant protein. It is filed as binding. Background: In MST a laser heats a spot of the sample, and binding alters the fluorescence response.
Sequence of α-enolase (P06733 2-434): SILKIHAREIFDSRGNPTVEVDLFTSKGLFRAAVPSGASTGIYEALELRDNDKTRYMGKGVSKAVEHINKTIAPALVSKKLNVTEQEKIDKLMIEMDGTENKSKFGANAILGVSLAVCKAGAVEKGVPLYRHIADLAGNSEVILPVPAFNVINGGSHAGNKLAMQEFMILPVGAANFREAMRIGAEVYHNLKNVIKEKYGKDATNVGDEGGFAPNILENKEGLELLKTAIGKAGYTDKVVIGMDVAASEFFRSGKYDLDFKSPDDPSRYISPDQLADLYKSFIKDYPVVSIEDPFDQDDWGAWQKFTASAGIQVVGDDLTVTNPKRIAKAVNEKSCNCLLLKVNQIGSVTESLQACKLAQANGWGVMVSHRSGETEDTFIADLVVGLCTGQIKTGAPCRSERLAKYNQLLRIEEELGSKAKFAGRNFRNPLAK

As usually defined, the Kd is the equilibrium constant for the complex coming apart. Consider `CCOC(=O)Oc1c(OC)cc(C(=O)O[C@@H]2C[C@@H]3CN4CCc5c([nH]c6cc(OC)ccc56)[C@H]4C[C@@H]3[C@H](C(=O)OC)[C@H]2OC)cc1OC` [syrosingopine], for which the Kd amounted to 1.25 µM.

Values taken from publication PMC5182053 (Science Advances, 2016).
